According to the pKa sets of Baltruschat and Czodrowski (2020):

details: acidic group

| SMILES | pKa |
| --- | --- |
| O=C(O)c1ccc(=O)oc1 | 3.26 |
| COc1ccc(S(N)(=O)=O)cc1 | 9.93 |
| O=C(O)c1ccc[nH]1 | 4.35 |
| CC(=O)NS(=O)(=O)c1ccc(N)cc1 | 5.35 |
| Cn1cccc1C(=O)O | 4.51 |
| CC(=O)c1ccccc1NN=C(C(=O)c1ccccc1)C(=O)c1ccccc1 | 9.2 |
| O=[N+]([O-])c1ccc(-c2ccc(O)cc2)cc1 | 9.01 |
| O/N=C/c1ccc(O)cc1O | 8.05 |
| Cc1cc(C(C)(C)C)c(O)c(C(C)(C)C)c1 | 12.6 |
| O=C(O)c1nsc2ccccc12 | 2.76 |
| Cc1n[nH]c2ncnc(N)c12 | 11.1 |
| C/C(O)=C/C(=O)O | 4.05 |
| CC[NH+]1CCC[C@@H]1CNC(=O)c1c(O)c(Cl)cc(Cl)c1OC | 5.75 |
| O=C([O-])CNC(=O)c1ccccc1O | 8.16 |
| Cc1ccc(O)c(O)c1 | 9.62 |
| C[NH+](C)CCc1c[nH]c2cccc(O)c12 | 8.47 |

| SMILES | pKa |
| --- | --- |
| O=C(O)c1cccc([N+](=O)[O-])c1Cl | 2.02 |
| COc1cccc(S(N)(=O)=O)c1 | 9.39 |
| C[N+](C)(C)CC(O)CC(=O)O (configuration not stated) | 3.8 |
| O=C1CCc2cc([N+](=O)[O-])ccc2C1 | 10.1 |
| O=c1cc(CO)occ1O | 7.82 |
| Cc1ccc(C(=O)O)c(C)c1 | 4.18 |
| CC(O)[C@@H]1C[C@H](CC(=O)O)C1(C)C (some centres not stated) | 4.83 |
| CSc1ccccc1C(=O)O | 3.89 |
| CC1=NN(c2ccccc2)C(=O)/C1=C\c1c(C)nn(-c2ccccc2)c1O | 13.8 |
| On1nnc2ccccc21 | 4.6 |
| O=C(O)[C@@H]1CC[C@H](C(=O)O)[Se]1 | 3.55 |
| COC(=O)CC(=O)c1cccnc1 | 8.98 |
| CCOc1ccccc1/C=C\C(=O)O | 4.35 |
| CCCc1nnn[nH]1 | 5.61 |
| NS(=O)(=O)c1cccc(C(F)(F)F)c1 | 8.98 |

same assay, conditions: basic group

| SMILES | pKa |
| --- | --- |
| C1CSCN1 | 6.31 |
| CCN1CCC[C@@H]1CNC(=O)c1c([O-])c(Br)cc(Br)c1OC | 9.12 |
| CNCCC(=O)c1ccccc1 | 9 |
| [O-]c1ccc2ccccc2n1 | 11.7 |
| O=C(O)c1ccc[nH]1 | -0.65 |
| CC(=O)NS(=O)(=O)c1ccc(N)cc1 | 1.58 |
| CCC(=O)O[C@@]1(c2ccccc2)CCN(C)C[C@H]1C | 8.66 |
| CC(C)Nc1ccccc1 | 5.67 |
| Cc1nc2cccc(N)c2n1C | 6.66 |
| Nc1ccc(/N=N/c2ccccc2)cc1 | 2.82 |
| Cc1cccc2cc3ccccc3nc12 | 4.5 |
| C[Si](C)(C)CN | 10.9 |
| NCc1ccc(F)c([O-])c1 | 10 |
| CCNc1nc(NCC)nc(NCC)n1 | 5.84 |
| CC1CCCC(C)(C)N1 (configuration not stated) | 11.3 |
| CC(C)N1C2CCCC21 (configuration not stated) | 8.31 |
| Cn1/c(=N\N)sc2ccccc21 | 6.1 |
| CN | 10.8 |
| Cc1nc(CO)[nH]c1C | 7.88 |
| Cc1n[nH]c2ncnc(N)c12 | 4.61 |
| Cc1ccccc1NC(C)(C)C | 6.49 |

| SMILES | pKa |
| --- | --- |
| C#C[C@]1(O)C[C@H](C)N[C@@H]2CCCC[C@H]21 | 9.63 |
| Clc1ccnc(-c2ccccn2)c1 | 3.8 |
| CCCCCCCCN(CCO)CC(C)O (configuration not stated) | 8.2 |
| C1CCN(CCC[NH+]2CCCCC2)CC1 | 7.97 |
| C1CCN(CCN2CCCCC2)CC1 | 9.43 |
| CN1C=C(C#N)C=CC1 | 2.7 |
| Nc1ccc2[nH+]cccc2c1 | 1.63 |
| CC(=O)OCC1CN2CCC1CC2 (configuration not stated) | 10.3 |
| CNc1ccc(O)cc1 | 6 |
| CN1CCCC1c1cccnc1 (configuration not stated) | 8.06 |
| Cc1cccc(N(C)C)c1 | 5.32 |
| CCN(CC)CCNc1cc(Nc2ccc(Cl)cc2)nc(C)n1 | 9.3 |
| NCCCCCO | 10.5 |
| O=C([O-])Cc1nc2ccccc2[nH]1 | 4.1 |
| COc1ccc(-c2nc3cnccc3n2C)c(OC)c1 | 6.16 |
| NCCCCCCC(=O)[O-] | 10.9 |
| CCOCCn1c(N2CCCN(CCCCn3cc(C(=O)[O-])cn3)CC2)nc2ccccc21 | 8.5 |
| CCN(CC)CC(O)CO (configuration not stated) | 9.77 |
| Brc1ccc2nc3c(c(N4CCOCC4)c2c1)CCC3 | 6.38 |
| NC(=O)CCCCc1ccncc1 | 5.92 |
